# Values of other authors, collected in patent publication US20150290158A1, “X-RAY CONTRAST MEDIA COMPOSITIONS AND METHODS OF USING THE SAME TO TREAT, REDUCE OR DELAY THE ONSET OF CNS INFLAMMATION AND INFLAMMATION ASSOCIATED CONDITIONS” (priority 2012, published 2015).
# Peptide text beside a SMILES is read from it.
# Legend:
# TNF-alpha = details: in vitro
# [1] = biological target: angiotensin converting enzyme (ACE) (Homo sapiens, UniProt P12821); details: compared with commercial iopamidol (contains chelator); from Lasser et al., 1990
# Chain of angiotensin converting enzyme (ACE) (P12821 30-1306, species assumed): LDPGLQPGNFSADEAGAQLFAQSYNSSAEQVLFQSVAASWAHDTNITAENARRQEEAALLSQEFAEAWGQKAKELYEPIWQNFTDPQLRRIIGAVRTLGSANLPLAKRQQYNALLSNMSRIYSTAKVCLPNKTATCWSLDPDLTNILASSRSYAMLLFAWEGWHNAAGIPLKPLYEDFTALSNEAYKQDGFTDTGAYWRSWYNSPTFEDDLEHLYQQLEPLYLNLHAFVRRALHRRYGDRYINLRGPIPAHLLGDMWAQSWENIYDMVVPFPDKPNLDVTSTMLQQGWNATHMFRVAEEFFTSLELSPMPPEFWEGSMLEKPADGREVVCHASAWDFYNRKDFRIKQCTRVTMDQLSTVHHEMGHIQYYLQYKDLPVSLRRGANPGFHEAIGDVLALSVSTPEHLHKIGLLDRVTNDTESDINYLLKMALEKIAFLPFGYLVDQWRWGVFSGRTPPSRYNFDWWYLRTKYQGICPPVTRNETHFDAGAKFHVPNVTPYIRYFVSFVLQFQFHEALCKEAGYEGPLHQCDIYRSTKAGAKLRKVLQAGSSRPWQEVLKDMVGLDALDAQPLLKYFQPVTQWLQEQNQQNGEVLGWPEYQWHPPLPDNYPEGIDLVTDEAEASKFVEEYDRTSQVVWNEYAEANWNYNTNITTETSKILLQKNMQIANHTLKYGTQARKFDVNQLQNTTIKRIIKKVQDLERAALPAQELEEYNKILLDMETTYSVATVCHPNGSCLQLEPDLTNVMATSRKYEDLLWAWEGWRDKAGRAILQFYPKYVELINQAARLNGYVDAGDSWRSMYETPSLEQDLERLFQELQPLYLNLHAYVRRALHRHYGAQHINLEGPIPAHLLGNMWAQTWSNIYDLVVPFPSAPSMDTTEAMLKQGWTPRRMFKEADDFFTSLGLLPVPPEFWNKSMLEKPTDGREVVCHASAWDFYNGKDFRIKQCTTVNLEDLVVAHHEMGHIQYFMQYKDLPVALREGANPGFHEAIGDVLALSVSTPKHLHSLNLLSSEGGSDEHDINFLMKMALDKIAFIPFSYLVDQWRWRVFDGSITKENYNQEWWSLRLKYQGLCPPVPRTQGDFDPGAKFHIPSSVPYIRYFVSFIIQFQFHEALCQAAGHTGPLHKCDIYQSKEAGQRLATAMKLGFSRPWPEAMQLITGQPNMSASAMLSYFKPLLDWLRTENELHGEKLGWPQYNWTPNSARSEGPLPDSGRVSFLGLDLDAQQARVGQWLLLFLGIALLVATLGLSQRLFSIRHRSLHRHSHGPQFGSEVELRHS
# [2] = test system: allergen induced nasal obstruction; details: used as a nasal spray, in vivo
# mast cell degranulation = details: in vitro, immunological and non-immunological stimuli
smiles,measurement,setting,value
CCCc1c2oc(C(=O)[O-])cc(=O)c2cc2c(=O)cc(C(=O)[O-])n(CC)c12.[Na+].[Na+] [nedocrimal sodium],inhibition of TNF-alpha,TNF-alpha,inhibited TNF-alpha in vitro
"C[C@H](O)C(=O)Nc1c(I)c(C(=O)NC(CO)CO)c(I)c(C(=O)NC(CO)CO)c1I [purified iopamidol, iopamidol]",inhibition of ACE,[1],diminishes the inhibition ACE significantly
O=C(O)c1cc(=O)c2c(OCC(O)COc3cccc4oc(C(=O)O)cc(=O)c34)cccc2o1 [Sodium cromoglycate],inhibition of TNF-alpha,TNF-alpha,inhibited TNF-alpha in vitro
CC(=O)N[C@@H](CC(=O)[O-])C(=O)N[C@@H](CCC(=O)[O-])C(=O)O.[Mg+2] [magnesium salt of n-acetyl aspartyl glutamic acid] (Ac-Asp-Glu-OH),allergen induced nasal obstruction,[2],reduce allergen induced nasal obstruction
same,mast cell degranulation,mast cell degranulation,inhibit mast cell degranulation
